# According to US5116863A, “Dibenz[b,e]oxepin derivative and pharmaceutical compositions thereof” (Kyowa Hakko Kogyo Co., Ltd., priority 1986, dated 1992):
# Columns and labels:
# [1] = test system: homologous PCA (passive cutaneous anaphlaxis) of rats; experiment: Homologous PCA (passive cutaneous anaphylaxis) test of rats for 48 hours, oral (antiallergic activity); type: in vivo, Wistar male rats; details: Rattus norvegicus; for minimal effective dose: minimum dosage with positive case in at least one of three rats, read-out: MED (minimum effective dosage), PCA inhibition; for responders at 0.1 mg/kg / responders at 1 mg/kg / responders at 10 mg/kg / responders at 100 mg/kg / responders at 0.01 mg/kg: po, positive = inhibition rate 50% or higher, read-out: Number of positive zooids in one group of 3 zooids (converted); for responders at 0.1 mg/kg: dosage 0.1 mg/kg; for responders at 1 mg/kg: dosage 1 mg/kg; for responders at 10 mg/kg: dosage 10 mg/kg; for responders at 100 mg/kg: dosage 100 mg/kg; for responders at 0.01 mg/kg: dosage 0.01 mg/kg
# Protocol: Antiallergic activity was investigated by a homologous PCA (passive cutaneous anaphlaxis) of rats for 48 hours, where Wistar male rats having body weights of 180 to 220 g were used for sampling of antiserum and Wistar male rats having body weights of 120 to 140 g were used for the PCA test.
# Anti-egg white albumin (EWA) rat serum was prepared according to Stotland and Share's method [Canad. J. Physiol. Pharmacol. 52, 1114 (1974)]. That is, 1 mg of EWA was mixed with 20 mg of aluminum hydroxide gel and 0.5 ml of mixed vaccine of pertussis, diphtheria and tetanus, and the mixture was subcutaneously administered in four portions into rat's footpad. After 14 days, blood was sampled from the carotid artery, and the serum was separated from the sampled blood, and preserved under freezing at -80° C. The potency of the antiserumin in the homologous PCA for 48 hours was 1:32.
# Groups each consisting of 3 rats were used, and 0.05 ml of anti-EWA rat serum diluted with a physiological saline solution to 8 times as much was incutaneously injected each at two positions of depilated back to make the animals passively sensitised. After 47 hours, the compound of the present invention, or its solution (physiological saline solution or CMC solution) was orally administered. One hour thereafter, 0.5 ml/100 g of 1% Evan's blue physiological saline solution containing 2 mg of the antigen EWA was administered into the tail vein, and 30 minutes thereafter, the animals were sacrificed by exsanguination. Then, the skins were stripped and the amount of leaked pigment at the blue-dyed parts was measured according to the Katayama et al method [Microbiol. Immunol. 22, 89 (1978)]. That is, the blue-dyed parts were cut out by scissors, and placed in test tubes containing 1 ml of 1N KOH and incubated at 37° C. for 24 hours. Then, 9 ml of a mixture of 0.6N phosphoric acid and acetone (5:13) was added thereto, and the mixture was shaked and centrifuged at 2,500 rpm for 10 minutes. Absorbancy of the supernatant at […] was measured, and the amount of leaked pigment was quantitatively determined by the calibration curve prepared in advance. An average of measurements at the two position was made a value for one zooid, and inhibition rate for the individual zooid was calculated by the following formula: [formula]
# dd, male mice = type: in vivo; details: mice, mortality 7 days after administration
# Protocol: Groups each consisting of 3 dd, male mice having body weights of 20±1 g were used, and the compound of the present invention was administered orally (po: 300 mg/kg) or intraperitoneally (ip: 100 mg/kg).
# Rat carageenin paw edema = experiment: Carageenin paw edema test (antiinflammatory activity); type: in vivo, Wistar male rats; details: average value in one group of 3 rats, 100 mg/kg oral administration
# Protocol: Antiinflammatory activity was examined according to Rat carageenin paw edema [J. Pathol. 104, 15-29 (1971)], Groups each consisting of three Wistar male rats weighing 150 g were used. The test compound was suspended in 0.3% aqueous CMC solution and the suspension was given orally. Sixty minutes later, 0.1 ml of 0.1% carageenin was subcutaneously injected in a hind paw to form carageenin paw edema.
# The volume of paw was measured before the administration and 3 hours after the administration of carageenin with plethysmometer.
# The ratio of the volume 3 hours after the administration to that before the administration of carageenin was calculated and each ratio is compared with the ratio of control group (0.3% CMC was administered) to give the edema inhibiting percentage.
SMILES,minimal effective dose [1],responders at 0.1 mg/kg [1],responders at 1 mg/kg [1],responders at 10 mg/kg [1],responders at 100 mg/kg [1],"Acute toxicity (MLD), ip (dd, male mice)","Acute toxicity (MLD), po (dd, male mice)",responders at 0.01 mg/kg [1],Carageenin paw edema inhibiting percentage (Rat carageenin paw edema)
"O=C(O)c1ccc2c(c1)C(=CCCN1CCCC1)c1ccccc1CO2 [Compound 7, 11-(3-Pyrrolidinopropylidene)-6,11-dihydrodibenz[b,e]oxepin-2-carboxylic acid]",1 mg/kg,0%,33.3%,66.7%,100%,> 100 mg/kg,> 300 mg/kg,–,–
"CN1CCN(CC=C2c3ccccc3COc3ccc(CC(=O)O)cc32)CC1 [Compound 26, 11-[2-(4-Methylpiperazino)ethylidene]-6,11-dihydrodibenz[b,e]oxepin-2-acetic acid]",1 mg/kg,0%,66.7%,100%,100%,> 100 mg/kg,> 300 mg/kg,–,–
"O=C(O)c1ccc2c(c1)C(=CCCN1CCOCC1)c1ccccc1CO2 [Compound 56, 11-(3-Morpholinopropylidene)-6,11-dihydrodibenz[b,e]-oxepin-2-carboxylic acid]",0.1 mg/kg,33.3%,100%,100%,100%,> 100 mg/kg,> 300 mg/kg,0%,–
"CN(C)CC/C=C1/c2ccccc2COc2ccc(/C=C/C(=O)O)cc21 [Compound 60, Trans-3-[11-(3-dimethylaminopropylidene)-6,11-dihydrodibenz[b,e]oxepin-2-yl]-acrylic acid]",0.1 mg/kg,33.3%,66.7%,100%,100%,> 100 mg/kg,> 300 mg/kg,0%,–
"O=C(O)c1ccc2c(c1)C(=CCCN1CCSCC1)c1ccccc1CO2 [Compound 58, 11-(3-Thiomorpholinopropylidene)-6,11-dihydrodibenz[b,e]oxepin-2-carboxylicacid]",1 mg/kg,0%,100%,100%,100%,> 100 mg/kg,> 300 mg/kg,–,–
"CN(C)CCN=C1c2ccccc2COc2cc(CC(=O)O)ccc21 [Compound 47, 11-(2-Dimethylaminoethyl)imino-6,11-dihydrodibenz[b,e]oxepin-3-acetic acid]",–,–,–,–,–,–,–,–,46.0%
"CN(C)CC/C=C1/c2ccccc2COc2ccc(CCC(=O)O)cc21 [Compound 28 (cis), Cis-3-[11-(3-dimethylaminopropylidene)-6,11-dihydrodibenz[b,e]oxepin-2-yl]-propionic acid]",0.1 mg/kg,33.3%,100%,66.7%,100%,> 100 mg/kg,> 300 mg/kg,0%,–
